25 molecules from ChEMBL document CHEMBL4715777, “Synthesis and topoisomerases inhibitory activity of heteroaromatic chalcones” (Bioorg Med Chem, 2016) can be followed below.

For assay [1], the target named is T1, DNA topoisomerase 1 (Homo sapiens) (UniProt P11387).
T1 sequence (whole entry): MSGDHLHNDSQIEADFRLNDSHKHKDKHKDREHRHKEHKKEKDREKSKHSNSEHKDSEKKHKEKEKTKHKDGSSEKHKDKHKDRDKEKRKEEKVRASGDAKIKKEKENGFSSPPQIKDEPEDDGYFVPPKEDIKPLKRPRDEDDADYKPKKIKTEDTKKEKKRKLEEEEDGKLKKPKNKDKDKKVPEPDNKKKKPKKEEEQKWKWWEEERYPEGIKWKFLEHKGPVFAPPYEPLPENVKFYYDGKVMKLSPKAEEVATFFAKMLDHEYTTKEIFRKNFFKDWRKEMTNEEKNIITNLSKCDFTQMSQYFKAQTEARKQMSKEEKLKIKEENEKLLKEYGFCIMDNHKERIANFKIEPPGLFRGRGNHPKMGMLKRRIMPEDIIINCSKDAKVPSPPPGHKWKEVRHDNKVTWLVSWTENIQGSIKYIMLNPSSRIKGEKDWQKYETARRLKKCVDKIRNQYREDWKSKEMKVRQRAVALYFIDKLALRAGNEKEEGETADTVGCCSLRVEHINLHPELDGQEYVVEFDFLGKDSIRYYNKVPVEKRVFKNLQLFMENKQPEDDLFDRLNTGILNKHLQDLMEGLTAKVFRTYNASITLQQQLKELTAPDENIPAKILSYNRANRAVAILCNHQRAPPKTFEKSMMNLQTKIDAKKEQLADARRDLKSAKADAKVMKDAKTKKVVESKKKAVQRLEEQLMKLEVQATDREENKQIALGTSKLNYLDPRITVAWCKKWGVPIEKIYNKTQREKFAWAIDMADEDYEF
Kind of assay: Inhibition of recombinant human DNA topoisomerase 1 expressed in baculovirus expression system assessed as decrease in relaxation of supercoiled pBR322 plasmid DNA at 100 uM using supercoiled pBR322 plasmid DNA as substrate incubated for 30 mins by ethidium bromide staining-based UV imaging analysis relative to control.

The next assay has as its system MDA-MB-231. Description: Cytotoxicity against human MDA-MB-231 cells assessed as cell growth inhibition measured after 2 days by cell counting kit-8 assay. Format: functional, cell-based. Particulars: MDA-MB-231, 48 h. Background: Formazan colour is commonly taken as a measure of viable cells.
The target in assay [2] is DNA topoisomerase 2-alpha (Homo sapiens) (UniProt P11388). Kind of assay: Inhibition of human DNA topoisomerase 2alpha assessed as decrease in relaxation of supercoiled pBR322 plasmid DNA at 100 uM using supercoiled pBR322 plasmid DNA as substrate incubated for 30 mins in presence of ATP by ethidium bromide staining-based UV imaging analysis relative to control.
In the next assay the test system is T47D. Kind of assay: Cytotoxicity against human T47D cells assessed as cell growth inhibition measured after 2 days by cell counting kit-8 assay. Format: functional, cell-based. The conditions noted are these: 48 h.
In another assay the test system is MDA-MB-468. Kind of assay: Cytotoxicity against human MDA-MB-468 cells assessed as cell growth inhibition measured after 2 days by cell counting kit-8 assay. Format: functional, cell-based. Particulars: MDA-MB-468, 48 h.
The target in assay [3] is T1, DNA topoisomerase 1 (Homo sapiens). Kind of assay: Inhibition of recombinant human DNA topoisomerase 1 expressed in baculovirus expression system assessed as decrease in relaxation of supercoiled pBR322 plasmid DNA at 20 uM using supercoiled pBR322 plasmid DNA as substrate incubated for 30 mins by ethidium bromide staining-based UV imaging analysis relative to control.

For assay [4], the target named is DNA topoisomerase 2-alpha (Homo sapiens) (UniProt P11388). Kind of assay: Inhibition of human DNA topoisomerase 2alpha assessed as decrease in relaxation of supercoiled pBR322 plasmid DNA at 20 uM using supercoiled pBR322 plasmid DNA as substrate incubated for 30 mins in presence of ATP by ethidium bromide staining-based UV imaging analysis relative to control.

Molecules are shown by their SMILES. Where a name gives a salt, the structure may show the parent alone. A value given as a limit tells only on which side of the number the result lay.

As a reminder, the inhibition is the change of the read-out against control, counted positive when it falls. The IC50 is the point on the concentration scale where inhibition reaches its midpoint.

DNA topoisomerase 2-alpha (Homo sapiens), sequence (P11388 whole entry): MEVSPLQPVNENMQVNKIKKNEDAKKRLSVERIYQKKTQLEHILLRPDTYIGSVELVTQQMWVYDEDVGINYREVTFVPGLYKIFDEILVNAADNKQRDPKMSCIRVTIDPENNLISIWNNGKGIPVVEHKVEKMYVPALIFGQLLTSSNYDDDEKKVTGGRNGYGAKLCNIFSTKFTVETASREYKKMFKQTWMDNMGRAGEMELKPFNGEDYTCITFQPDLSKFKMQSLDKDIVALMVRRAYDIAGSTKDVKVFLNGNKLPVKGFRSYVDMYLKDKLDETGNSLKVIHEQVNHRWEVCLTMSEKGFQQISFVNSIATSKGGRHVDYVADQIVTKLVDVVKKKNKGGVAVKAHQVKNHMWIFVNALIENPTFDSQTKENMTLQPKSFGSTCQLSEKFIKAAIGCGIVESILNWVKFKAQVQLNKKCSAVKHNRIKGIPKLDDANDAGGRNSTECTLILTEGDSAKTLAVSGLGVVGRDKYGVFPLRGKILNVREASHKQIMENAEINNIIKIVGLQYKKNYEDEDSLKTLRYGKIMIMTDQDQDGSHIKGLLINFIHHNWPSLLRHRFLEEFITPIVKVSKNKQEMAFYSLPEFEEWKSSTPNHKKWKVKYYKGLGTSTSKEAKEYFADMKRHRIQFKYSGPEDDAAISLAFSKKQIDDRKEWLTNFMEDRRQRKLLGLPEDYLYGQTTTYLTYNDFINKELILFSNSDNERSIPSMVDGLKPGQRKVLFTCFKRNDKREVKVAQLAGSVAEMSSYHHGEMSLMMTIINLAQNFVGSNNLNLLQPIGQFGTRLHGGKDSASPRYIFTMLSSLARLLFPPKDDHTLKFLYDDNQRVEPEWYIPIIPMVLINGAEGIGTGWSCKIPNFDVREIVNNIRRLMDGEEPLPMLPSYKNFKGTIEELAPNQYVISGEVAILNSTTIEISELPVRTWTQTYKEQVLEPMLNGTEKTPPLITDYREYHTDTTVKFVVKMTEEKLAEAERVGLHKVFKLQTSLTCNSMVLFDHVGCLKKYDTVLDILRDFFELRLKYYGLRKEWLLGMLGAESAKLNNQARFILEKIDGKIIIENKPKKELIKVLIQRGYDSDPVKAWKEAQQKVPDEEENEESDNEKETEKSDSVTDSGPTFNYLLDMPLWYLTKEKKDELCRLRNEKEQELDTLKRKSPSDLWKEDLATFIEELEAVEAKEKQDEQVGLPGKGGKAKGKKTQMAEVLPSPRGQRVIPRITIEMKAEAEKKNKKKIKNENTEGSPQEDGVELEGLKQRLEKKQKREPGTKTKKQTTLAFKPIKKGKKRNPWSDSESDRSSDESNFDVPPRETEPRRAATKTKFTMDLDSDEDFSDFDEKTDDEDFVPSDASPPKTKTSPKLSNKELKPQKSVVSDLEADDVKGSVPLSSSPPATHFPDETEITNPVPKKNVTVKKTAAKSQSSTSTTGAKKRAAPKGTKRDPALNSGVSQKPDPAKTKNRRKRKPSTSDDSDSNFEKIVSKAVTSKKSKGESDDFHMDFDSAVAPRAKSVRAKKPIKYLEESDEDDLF

Turning to `O=C(/C=C/c1cccs1)c1ccccc1OCC1CS1` (centres undefined), the inhibition in assay [1] and in assay [2] was 0.4% each time. The IC50 came to 17.9 µM in the assay with MDA-MB-231, 7.01 µM in the assay on T47D and 4.35 µM in the assay on MDA-MB-468.

As to `O=C(/C=C/c1ccc(OCC2CO2)cc1)c1ccco1` (centres undefined), the inhibition in assay [1] and in assay [2] was 0% in each case. Besides, the values for the IC50 in the assay on MDA-MB-231, in the assay with T47D and in the assay with MDA-MB-468 were 22.2 µM, 11.2 µM and 17.3 µM, respectively.

`CC[C@@]1(O)C(=O)OCc2c1cc1n(c2=O)Cc2cc3ccccc3nc2-1` [CAMPTOTHECIN]: the IC50 in the assay on MDA-MB-231 turned out to be 8.83 µM; in the assay with T47D, 3.67 µM; in the assay with MDA-MB-468 it was 1.71 µM. In addition, in assay [2], the inhibition is less than 30%.

As for `O=C(/C=C/c1cccs1)c1cccc(OCC2CS2)c1` (centres undefined), the values for the inhibition in assay [1] and in assay [2] were 0% and 3.7%, respectively. In addition, the IC50 in the assay with MDA-MB-231 stood at 19.9 µM; in the assay on T47D, 10.6 µM; in the assay with MDA-MB-468 it was 6.98 µM.

On to `O=C(/C=C/c1ccco1)c1ccccc1OCC1CS1` (centres undefined), for which the inhibition in assay [1] is 61.2%; in assay [3], 6.4%; in assay [2], 95.4%; in assay [4], 30.6%. The concentration for half-maximal inhibition (IC50) with MDA-MB-231 stood at 32.2 µM; in the assay on T47D, 6.61 µM; in the assay with MDA-MB-468, 8.26 µM.

On to `O=C(/C=C/c1cccs1)c1ccc(OCC2CS2)cc1` (centres undefined), for which the inhibition was 14.5% in assay [1] and 0% in assay [2]. For the same molecule, the figures for the IC50 in the assay on MDA-MB-231, in the assay on T47D and with MDA-MB-468 were 16.7 µM, 11.1 µM and 5.27 µM, respectively.

On to `O=C(/C=C/c1cccs1)c1ccc(OCC2CO2)cc1` (centres undefined), for which the inhibition in assay [1] was found to be 0%; in assay [2], 0.6%. In addition, the IC50 with MDA-MB-231 was determined as 28.3 µM; with T47D, 17.8 µM; in the assay with MDA-MB-468, 17.2 µM.

On to `O=C(/C=C/c1ccco1)c1cccc(OCC2CS2)c1` (centres undefined), for which the inhibition in assay [1] stood at 75.4%; in assay [3] it was 1.3%; in assay [2], 90.4%; in assay [4], 29.8%. Moreover, the IC50 in the assay with MDA-MB-231 was determined as 28.9 µM; in the assay on T47D, 10.4 µM; in the assay with MDA-MB-468, 7.23 µM.

For `O=C(/C=C/c1ccco1)c1ccc(OCC2CO2)cc1` (centres undefined), the inhibition is 36.8% in assay [1], 0% in assay [3] and 6.6% in assay [2]. In addition, the IC50 in the assay with MDA-MB-231 was 47.1 µM; with T47D it was 17.7 µM; with MDA-MB-468 it was 48.9 µM.

In the case of `O=C(/C=C/c1ccc(OCC(O)CCl)cc1)c1cccs1` (centres undefined), the inhibition in assay [1] is 4.3%; in assay [2], 3.7%. The IC50 in the assay with MDA-MB-231 worked out at 30.3 µM; in the assay on T47D it was 13 µM; in the assay with MDA-MB-468, 7.75 µM.

Turning to `O=C(/C=C/c1ccco1)c1cccc(OCC2CO2)c1` (centres undefined), the inhibition came out at 28.5% in assay [1], 67.6% in assay [2] and 0.3% in assay [4]. Moreover, the IC50 was 27.8 µM in the assay on MDA-MB-231, 22.7 µM with T47D and 37.3 µM with MDA-MB-468.

As to `O=C(/C=C/c1ccco1)c1ccccc1OCC1CO1` (centres undefined), the inhibition in assay [1] worked out at 36.8%; in assay [3] it was 24.2%; in assay [2], 82.3%; in assay [4] it was 0%. Besides, the figures for the half-maximal inhibitory concentration (IC50) in the assay on MDA-MB-231, in the assay on T47D and in the assay with MDA-MB-468 were 28.7 µM, 19.4 µM and 48.3 µM, respectively.

For the molecule `O=C(/C=C/c1ccoc1)c1ccc(OCC2CO2)cc1` (centres undefined), the inhibition in assay [1] is 5.6%; in assay [2], 0.3%. Besides, the IC50 with MDA-MB-231 amounted to 26.2 µM; in the assay on T47D it was 20.6 µM; in the assay with MDA-MB-468, 16.5 µM.

`COc1cccc2c1C(=O)c1c(O)c3c(c(O)c1C2=O)C[C@@](O)(C(=O)CO)C[C@@H]3O[C@H]1C[C@H](N)[C@H](O)[C@H](C)O1` [DOXORUBICIN HYDROCHLORIDE]: the 50% inhibitory concentration (IC50) in the assay with MDA-MB-231 came out at 3.6 µM; in the assay with T47D, 2.18 µM; in the assay on MDA-MB-468 it was 2.15 µM.

As to `O=C(/C=C/c1ccco1)c1ccc(OCC2CS2)cc1` (centres undefined), the inhibition in assay [1] worked out at 63.8%; in assay [3], 0%; in assay [2] it was 94.5%; in assay [4], 24.7%. Moreover, the results for the IC50 in the assay with MDA-MB-231, with T47D and in the assay on MDA-MB-468 were 18 µM, 9.44 µM and 4.32 µM, respectively.

Take `O=C(/C=C/c1ccoc1)c1ccc(OCC2CS2)cc1` (centres undefined): the inhibition in assay [1] and in assay [2] was 0% each time. Besides, the IC50 in the assay on MDA-MB-231 worked out at 19.3 µM; in the assay on T47D it was 12.3 µM; in the assay with MDA-MB-468, 5.3 µM.

As for `O=C(/C=C/c1ccc(OCC(O)CCl)cc1)c1ccco1` (centres undefined), the inhibition in assay [1] was found to be 1.8%; in assay [2], 0%. In addition, the IC50 is greater than 50 µM in the assay with MDA-MB-231, greater than 50 µM in the assay with T47D and 9.53 µM in the assay with MDA-MB-468.

`O=C(/C=C/c1cccs1)c1ccccc1OCC1CO1` (centres undefined): the inhibition stood at 11.1% in assay [1] and 0.7% in assay [2]. For the same molecule, the values for the concentration for half-maximal inhibition (IC50) with MDA-MB-231, in the assay with T47D and with MDA-MB-468 were 17.9 µM, 17.7 µM and 7.71 µM, respectively.

As for `O=C(/C=C/c1cccs1)c1cccc(OCC2CO2)c1` (centres undefined), the values for the inhibition in assay [1] and in assay [2] were 2.7% and 3.9%, respectively. Further, the IC50 was 15.4 µM in the assay on MDA-MB-231, 14.6 µM in the assay on T47D and 16.3 µM with MDA-MB-468.

Consider `O=C(/C=C/c1ccc(OCC2CS2)cc1)c1cccs1` (centres undefined), for which the results for the inhibition in assay [1] and in assay [2] were 5.1% and 0%, respectively. Further, the IC50 with MDA-MB-231 worked out at 17.3 µM; with T47D, 3.83 µM; with MDA-MB-468, 6.14 µM.

For the molecule `O=C(/C=C/c1ccc(OCC2CS2)cc1)c1ccco1` (centres undefined), the inhibition came to 3.3% in assay [1] and 0% in assay [2]. For the same molecule, the IC50 in the assay on MDA-MB-231 came to 24.1 µM; in the assay on T47D, 10.6 µM; in the assay on MDA-MB-468, 8.35 µM.

In the case of `O=C(/C=C/c1ccsc1)c1ccc(OCC2CS2)cc1` (centres undefined), the values for the inhibition in assay [1], in assay [3] and in assay [2] were 100%, 0% and 0%, respectively. Further, the IC50 with MDA-MB-231 is 50 µM; in the assay with T47D it was 9.32 µM; with MDA-MB-468 it was 23.8 µM.

Take `COc1cc([C@@H]2c3cc4c(cc3[C@@H](O[C@@H]3O[C@@H]5CO[C@@H](C)O[C@H]5[C@H](O)[C@H]3O)[C@H]3COC(=O)[C@H]23)OCO4)cc(OC)c1O` [ETOPOSIDE]: the inhibition in assay [1] was less than 30%. Also, the IC50 was 9.13 µM with MDA-MB-231, 1.96 µM in the assay on T47D and 0.86 µM in the assay with MDA-MB-468.

Regarding `O=C(/C=C/c1ccc(OCC2CO2)cc1)c1cccs1` (centres undefined), the inhibition was found to be 34.1% in assay [1], 15.6% in assay [3] and 0% in assay [2]. In addition, the IC50 in the assay with MDA-MB-231 was 13.9 µM; with T47D it was 10.6 µM; in the assay on MDA-MB-468, 6.3 µM.

Take `O=C(/C=C/c1ccsc1)c1ccc(OCC2CO2)cc1` (centres undefined): the figures for the inhibition in assay [1], in assay [3] and in assay [2] were 46.3%, 0% and 2.7%, respectively. Besides, the IC50 came to 11.1 µM in the assay on MDA-MB-231, 10.6 µM in the assay with T47D and 10.8 µM in the assay with MDA-MB-468.
